Assay results: US20260027071A1, “COMPOSITION FOR PROMOTING COLLAGEN PRODUCTION COMPRISING AMIDATED AMINO ACID” (KYUNGPOOK NATIONAL UNIVERSITY INDUSTRY-ACADEMIC COOPERATION …, priority 2022, published 2026)
Entries after “also recorded” stand apart in the source; their conditions may differ.

Legend:
[1] = tested on: Human dermal fibroblasts (HDF); assay: Collagen protein in conditioned media (Sircol Collagen Assay) of human dermal fibroblasts; type: cell-based; conditions: for change in collagen production induced by individual treatment: concentration not given; for collagen production (collagen levels secreted into the media): HDF treated at 1 mM, result in words
Method: (§1) The collagen protein levels in the conditioned media were evaluated using the Sircol™ Collagen Assay (Biocolor, Antrim, UK) according to the manufacturer's instructions. […] After discarding the media, the cells were washed with 500 μL of phosphate-buffered saline (PBS), then incubated in 1 mL of serum-free media for another 24 hours. A 1.0 mL media sample (either conditioned media or fresh media as a negative control) was transferred to a microcentrifuge tube, mixed with 100 μL of collagen isolation and concentration reagent, and incubated overnight at 4° C. The samples were centrifuged at 13,000×g for 10 minutes at 4° C., and the supernatant was carefully removed using a pipette without disturbing the pellet. Each tube was then added with 500 μL of Sircol dye reagent, inverted five times, and shaken at room temperature for 30 minutes. After centrifugation, the supernatant was discarded, and the pellet was washed with 500 μL of cold acid-salt washing reagent, followed by another centrifugation step. The pellet was then dissolved in 250 μL of alkali reagent, and a 200 μL portion was transferred to a 96-well plate. The optical density of the solution was read at 555 nm using a Spectrostar Nano microplate reader (BMG LABTECH GmbH, Ortenberg, Germany).

human dermal fibroblasts = assay: Wound healing (wound closure) assay, Oris cell migration kit; type: cell-based; conditions: HDF
Method: Wound closure analysis was performed using the Oris™ Universal Cell Migration Assembly kit (Platinus Technologies, WI, USA) according to the manufacturer's instructions. The Oris™ stoppers were inserted into each well of the Oris™-compatible 96-well plate, and the plate was inverted to check for complete stopper attachment. A suspension of human dermal fibroblasts in IMDM was added to each well (1×10^4 cells in 100 μL per well) and incubated for 12 hours to allow cell attachment. Then, the stoppers were removed using the stopper tool, and the medium was aspirated using a pipette. The wells were gently washed with 100 μL PBS to remove unattached cells, and the attached cells were treated with drugs in 100 μL culture medium for the specified time, respectively. Images of the wounds were obtained using a phase-contrast microscope (Eclipse TS 100, Nikon Instruments Inc., Melville, NY, USA). The wound areas in the images were quantified using the NIH Image J program. Wound closure (%) was calculated using the following equation: Wound closure (%)=[(A0−At)/A0]×100, where A0 is the area of the original wound and At is the wound area measured at the specified time.

[2] = tested on: Human dermal fibroblasts (HDF); assay: Cell viability / proliferation (MTT assay) in human dermal fibroblasts; conditions: for cell proliferation (MTT reduction): concentration series (FIGS. 13a to 13f)
Method: (§2) Human dermal fibroblasts (HDF) extracted from adult skin were obtained from Cascade Biologics (Portland, OR, USA), and human articular chondrocytes (HAC), human follicle dermal papilla cells (HFCPC), human aortic endothelial cells (HAoEC), and human osteoblasts (HOB) were obtained from PromoCell (Heidelberg, Germany). The cells were cultured in a closed incubator at 37° C. in humidified air comprising 5% CO2. The growth medium for HDF consisted of Iscove's Modified Dulbecco's Medium (IMDM) (Gibco BRL, Grand Island, NY, USA) supplemented with 10% fetal bovine serum (Hyclone, South Logan, UT) and 1% antibiotics (100 U·mL^−1 penicillin, 0.1 mg·mL^−1 streptomycin).
(§3) The cell viability was evaluated using the MTT assay. Briefly, HDF (1×10^4 cells per well), HAC (5×10^3 cells per well), HFDPC (1×10^4 cells per well), HAoEC (5×10^3 cells per well), and HOB (2×10^3 cells per well) were cultured in growth media in a 96-well culture plate for 24 hours, followed by treatment with each drug for 48 hours. After discarding the media, the cells were incubated at 37° C. for 2 hours in fresh growth media (100 μL) containing 1 mg·mL^−1 MTT (Amresco, Solon, OH, USA). The media was removed by aspiration, and the formazan dye accumulated inside the cells was dissolved in 100 μL of dimethyl sulfoxide. The absorbance of the solution was measured at 570 nm using a Spetrostar Nano microplate reader (BMG LABTECH GmbH, Ortenberg, Germany).

[3] = tested on: Human dermal fibroblasts (HDF); conditions: 48 h
Method: as §2, §3

[4] = tested on: human articular chondrocytes (HAC); assay: Collagen protein (Sircol Collagen Assay) in human articular chondrocytes; type: cell-based; conditions: for increase in collagen production compared to the control: absence of TGF-β1
Method: as §1

[5] = tested on: human articular chondrocytes (HAC); assay: Cell viability / proliferation (MTT assay) in human articular chondrocytes; type: cell-based; conditions: for cell viability compared to the control group: concentration series (FIGS. 13g to 13l)
Method: The cell viability was evaluated using the MTT assay.

[6] = tested on: human follicle dermal papilla cells (HFCPC); assay: Collagen protein (Sircol Collagen Assay) in human follicle dermal papilla cells; type: cell-based; conditions: 1 mM
Method: as §1

[7] = tested on: human aortic endothelial cells (HAoEC); assay: Collagen protein (Sircol Collagen Assay) in human aortic endothelial cells; type: cell-based; conditions: 1 mM
Method: as §1

human osteoblasts (HOB) = assay: Collagen protein (Sircol Collagen Assay) in human osteoblasts; type: cell-based; conditions: 1 mM
Method: as §1

[8] = HDF, 1 mM each, absence of TGF-β1 (FIG. 5a)
[9] = HDF, concentration series (FIGS. 13a to 13f)

Compound: CCOC1=C(O)C(=O)O[C@@H]1[C@@H](O)CO [EAA, 3-O-ethyl ascorbic acid, reference compound]
- change in collagen production induced by individual treatment ([1]; HDF, FIG. 7b): 19.5%
- change in collagen production induced by combined treatment with glycinamide ([1]; HDF, ascorbic acid analog combined with glycinamide, FIG. 7b): 115.5%
- wound closure (human dermal fibroblasts; early stage (24 hours)): slightly promoted wound closure
- wound closure (human dermal fibroblasts; later stages (36 and 48 hours)): inhibited
- cell proliferation effect of TGF-β1 ([2]; HDF, analog combined with TGF-β1 (FIG. 7c)): significantly reduced

Compound: O=C1O[C@H]([C@@H](O)CO)C(O)=C1O [ascorbic acid, reference compound]
- collagen production (collagen levels secreted into the media) [1]: increased collagen production
- increase in collagen production compared to the control [1, 8]: 23.1%
- collagen production ([1]; HDF, 3 and 5 mM): significantly reduced
- concentrations at which collagen production increased ([1]; HDF, non-cytotoxic concentrations (FIG. 10b)): 10 to 1000 µM
- change in wound closure induced by treatment (human dermal fibroblasts; 24 hours after treatment): 9.1%
- change in wound closure induced by treatment (human dermal fibroblasts; after 12 hours of treatment): 2.5%
- concentrations with no effect on cell viability [3]: ≤ 1000 µM

Compound: C[C@H]1[C@H](C)CC[C@]2(C(=O)O)CC[C@]3(C)C(=CC[C@@H]4[C@@]5(C)C[C@@H](O)[C@H](O)[C@@](C)(CO)[C@@H]5CC[C@]43C)[C@H]12 [asiatic acid]
- collagen production ([1]; HDF, 10 μM): decreased
- concentrations that reduced cell viability [3]: above 300 μM
- concentrations with no effect on cell viability [3]: below 100 μM

Compound: Cl.N[C@H]1C(O)O[C@H](CO)[C@@H](O)[C@@H]1O (some centres unmarked) [glucosamine, glucosamine HCl, reference compound]
- increase in collagen production compared to the control ([1]; HDF, 0.5 mM, absence of TGF-β1): 118.6%
- collagen production [1, 9]: increased collagen production
- collagen production ([4]; 0.5 mM): increased collagen production
- increase in collagen production compared to the control ([4]; 0.5 mM): 147.6%
- cell viability ([5]; HAC, 0.5 mM): without affecting cell viability
- cell proliferation (MTT reduction) ([2]; HDF): did not affect cell proliferation

Compound: Cl.NCC(N)=O [glycinamide, Glycinamide HCl]
- collagen production (collagen levels secreted into the media) ([1]; HCl): most effective; also recorded: highest collagen production-promoting effect
- collagen production (collagen levels secreted into the media) ([1]; listed as glycylamine, HCl): superior collagen-promoting effect compared to all free amino acids
- change in collagen production, individual treatment ([1]; HDF, 100 μM): 27.2%
- increase in collagen production compared to the control ([1]; HDF, 0.5 mM, absence of TGF-β1): 139.2%
- change in collagen production, individual treatment ([1]; HDF, 1000 μM): 75.7%
- increase in collagen production compared to the control [1, 8]: 68.2%
- change in collagen production induced by individual treatment ([1]; HDF, FIG. 7b): 67.4%
- collagen production [1, 9]: increased collagen production in a concentration-dependent manner
- change in wound closure induced by treatment (human dermal fibroblasts; 24 hours after treatment): 19.2%
- change in wound closure induced by treatment (human dermal fibroblasts; after 12 hours of treatment): 6.3%
- wound closure (human dermal fibroblasts; treated alone, up to 48 hours (FIG. 8b)): promoted wound closure
- collagen production ([4]; 0.5 mM): enhancing collagen production
- increase in collagen production compared to the control ([4]; 0.5 mM): 181.3%
- collagen production ([4]; 1 mM): most effective among the amidated amino acids
- increase in collagen production (greatest effect) ([4]; 2 mM): 238.6%
- cell viability compared to the control group ([5]; HAC): slightly but significantly increased cell viability
- collagen production [6]: most effective among the amidated amino acids
- collagen production [7]: most effective among the amidated amino acids
- collagen production (human osteoblasts (HOB)): most effective among the amidated amino acids
- collagen production effect (human osteoblasts (HOB)): 433.8%
- cell viability ([2]; HDF treated at 1 mM, result in words): no significant change in cell viability
- cell proliferation (MTT reduction) ([2]; HDF): did not affect cell proliferation

Compound: C[C@H]1[C@H](C)CC[C@]2(C(=O)O)CC[C@]3(C)C(=CC[C@@H]4[C@@]5(C)C[C@@H](O)[C@H](O)[C@@](C)(CO)[C@@H]5[C@H](O)C[C@]43C)[C@H]12 [madecassic acid]
- collagen production ([1]; HDF, 10 μM): decreased
- concentrations that reduced cell viability [3]: above 300 μM
- concentrations with no effect on cell viability [3]: below 100 μM

Compound: TGF-β1: Recombinant human TGF-β1 protein purchased from R&D Systems
- collagen production ([1]; HDF, TGF-β1 10 ng mL^−1 alone): effect of enhancing collagen production
- collagen production [1, 9]: collagen production enhancement effect that surpassed its cell proliferation effect
- wound closure compared to the control (human dermal fibroblasts; 12 and 24 hours post-treatment): significantly improved wound closure
- collagen production ([4]; TGF-β1 10 ng mL^−1 alone): effect of enhancing collagen production
- collagen production ([4]; TGF-β1 up to 10 ng mL-1): improved collagen production in a dose-dependent manner
- cell proliferation compared to the control ([5]; HAC (FIGS. 14a to 14d)): better cell proliferation compared to the control
- cell viability compared to the control group ([5]; HAC): slightly but significantly increased cell viability
- cell proliferation compared to the control ([2]; HDF (FIGS. 14a to 14d)): better cell proliferation compared to the control
- cell proliferation (MTT reduction) ([2]; HDF): increased the proliferation
- increase in number of viable cells compared to the control ([2]; HDF, TGF-β1 10 ng mL^−1, or ascorbic acid 1 mM + glycinamide 1 mM (FIG. 5b)): 44.5%
